Test results taken from patent publication US20090311344A1, “Dosing Regimen” (priority 2008, published 2009).

Assay: Multiple dose study in cancer subjects: treatment-emergent (serious) adverse events
Conditions: n of N = 12
Procedure: 46 subjects with cancer receiving platinum-based therapies were enrolled into 3 cohorts (N=16 in Cohort 1, 14 in Cohort 2, and 16 in Cohort 3). The subjects received the TPO mimetic peptide compound or placebo within 2 hours prior to the platinum-based chemotherapy on Day 1 of the first 2 cycles with a 21-day interval between each cycle. In addition to the Day 1 administration, gemcitabine administration was permitted on Day 8 of each cycle. Other chemotherapy medications were limited to dosing on Day 1 of each cycle only. Subjects were followed up for a total of 4 cycles of chemotherapy. Chemotherapy regimen continued beyond the first 4 cycles as per standard of care therapy. In the first cohort, 12 subjects received 1.5 μg/kg the TPO mimetic peptide compound and 4 subjects received placebo. In the second cohort 10 subjects received 3.0 μg/kg the TPO mimetic peptide compound and 4 subjects received placebo. In the third cohort, 12 subjects received 2.25 μg/kg the TPO mimetic peptide compound and 4 subjects received placebo. […] Therefore, a third cohort at a lower dose (2.25 μg/kg) was added to collect additional safety, tolerability, PD, and PK data.

## Methoxypolyethyleneglycol20000-propionyl-L-Isoleucyl-L-Glutamyl-Glycyl-L-Prolyl-L-Threonyl-L-Leucyl-L-Arginyl-L-Glutaminyl-L-2-Naphthylalanyl-L-Leucyl-L-Alanyl-L-Alanyl-L-Arginyl-Sarcosyl-Ne-(methoxypolyethyleneglycol20000-propionyl-L-Isoleucyl-L-Glutamyl-Glycyl-L-Prolyl-L-Threonyl-L-Leucyl-L-Arginyl-L-Glutaminyl-L-2-Naphthylalanyl-L-Leucyl-L-Alanyl-L-Alanyl-L-Arginyl-Sarcosyl-)-Lysinamide [TPO mimetic peptide compound]
1.5 ug/kg
  Adverse event: Abdominal pain: 2
  Adverse event: Acute myocardial infarction: 1
  Adverse event: Alanine aminotransferase increased: 0
  Adverse event: Alopecia: 2
  Adverse event: Anemia: 7
  Adverse event: Anorexia: 5
  Adverse event: Anxiety: 1
  Adverse event: Arthralgia: 0
  Adverse event: Aspartate aminotransferase increased: 0
  Adverse event: Atrial fibrillation: 1
  Adverse event: Azotaemia: 0
  Adverse event: Blood and lymphatic system disorders: 8
  Adverse event: Blood creatinine increased: 1
  Adverse event: C-reactive protein increased: 0
  Adverse event: Cancer pain: 1
  Adverse event: Cardiac disorders: 3
  Adverse event: Cardiac failure: 1
  Adverse event: Chills: 0
  Adverse event: Confusional state: 0
  Adverse event: Constipation: 3
  Adverse event: Cough: 0
  Adverse event: Dehydration: 0
  Adverse event: Dermatitis acneiform: 0
  Adverse event: Diabetes mellitus non-insulin-dependent: 1
  Adverse event: Diarrhea: 2
  Adverse event: Dizziness: 0
  Adverse event: Dry skin: 0
  Adverse event: Dyspepsia: 0
  Adverse event: Dyspnoea: 1
  Adverse event: Ear and labyrinth disorders: 0
  Adverse event: Epistaxis: 0
  Adverse event: Eructation: 0
  Adverse event: Fatigue: 5
  Adverse event: Febrile neutropenia: 0
  Adverse event: Folliculitis: 1
  Adverse event: Gastrointestinal disorders: 7
  Adverse event: General disorders and administration site conditions: 7
  Adverse event: General physical health deterioration: 0
  Adverse event: Haematocrit decreased: 0
  Adverse event: Headache: 1
  Adverse event: Hemorrhoids: 1
  Adverse event: Hepatobiliary disorders: 0
  Adverse event: Hiccups: 1
  Adverse event: Hyperbilirubinaemia: 0
  Adverse event: Hypersensitivity: 0
  Adverse event: Hypertension: 0
  Adverse event: Hypoalbuminaemia: 0
  Adverse event: Hypocalcaemia: 1
  Adverse event: Hypokalaemia: 0
  Adverse event: Hypomagnesaemia: 0
  Adverse event: Hyponatraemia: 0
  Adverse event: Hypophosphataemia: 1
  Adverse event: Immune system disorders: 0
  Adverse event: Insomnia: 0
  Adverse event: Investigations: 3
  Adverse event: Leukocytosis: 0
  Adverse event: Leukopenia: 2
  Adverse event: Lung abscess: 1
  Adverse event: Lymphopenia: 2
  Adverse event: Metabolism and nutrition disorders: 5
  Adverse event: Mucosal inflammation: 0
  Adverse event: Musculoskeletal and connective tissue disorders: 0
  Adverse event: Nausea: 6
  Adverse event: Neoplasms benign, malignant and unspecified (incl cysts and polyps): 1
  Adverse event: Nervous system disorders: 3
  Adverse event: Neuropathy peripheral: 1
  Adverse event: Neutropenia: 3
  Adverse event: Oedema: 0
  Adverse event: Oedema peripheral: 1
  Adverse event: Pain: 3
  Adverse event: Pain in extremity: 0
  Adverse event: Paraesthesia: 0
  Adverse event: Peripheral motor neuropathy: 1
  Adverse event: Peripheral sensory neuropathy: 0
  Adverse event: Platelet count decreased: 1
  Adverse event: Psychiatric disorders: 1
  Adverse event: Pyrexia: 1
  Adverse event: Rash: 2
  Adverse event: Renal and urinary disorders: 0
  Adverse event: Respiratory failure: 1
  Adverse event: Respiratory, thoracic and mediastinal disorders: 2
  Adverse event: Skin and subcutaneous tissue disorders: 4
  Adverse event: Stomatitis: 2
  Adverse event: Tachycardia: 2
  Adverse event: Thrombocythaemia: 1
  Adverse event: Thrombocytopenia: 3
  Adverse event: Tinnitus: 0
  Adverse event: Vascular disorders: 0
  Adverse event: Vomiting: 2
  Adverse event: Weight decreased: 1
  Serious adverse event: Abdominal pain: 1
  Serious adverse event: Acute myocardial infarction: 1
  Serious adverse event: Anorexia: 1
  Serious adverse event: Atrial fibrillation: 1
  Serious adverse event: Blood and lymphatic system disorders: 2
  Serious adverse event: Blood creatinine increased: 0
  Serious adverse event: Cardiac disorders: 2
  Serious adverse event: Cardiac failure: 1
  Serious adverse event: Dehydration: 0
  Serious adverse event: Dyspnoea: 0
  Serious adverse event: Fatigue: 1
  Serious adverse event: Febrile neutropenia: 0
  Serious adverse event: Gastrointestinal disorders: 2
  Serious adverse event: General disorders and administration site conditions: 2
  Serious adverse event: Hyponatraemia: 0
  Serious adverse event: Investigations: 0
  Serious adverse event: Lung abscess: 1
  Serious adverse event: Metabolism and nutrition disorders: 1
  Serious adverse event: Nausea: 1
  Serious adverse event: Neutropenia: 1
  Serious adverse event: Pain: 1
  Serious adverse event: Pyrexia: 1
  Serious adverse event: Respiratory failure: 1
  Serious adverse event: Respiratory, thoracic and mediastinal disorders: 1
  Serious adverse event: Thrombocythaemia: 1
  Serious adverse event: Thrombocytopenia: 0
  Serious adverse event: Vomiting: 0
  Total no. subjects WITH ADVERSE EVENTS: 12
  Total no. subjects WITH SERIOUS ADVERSE EVENTS: 5
2.25 ug/kg
  Adverse event: Abdominal pain: 1
  Adverse event: Acute myocardial infarction: 0
  Adverse event: Alanine aminotransferase increased: 0
  Adverse event: Alopecia: 3
  Adverse event: Anemia: 2
  Adverse event: Anorexia: 0
  Adverse event: Anxiety: 0
  Adverse event: Arthralgia: 0
  Adverse event: Aspartate aminotransferase increased: 0
  Adverse event: Atrial fibrillation: 0
  Adverse event: Azotaemia: 1
  Adverse event: Blood and lymphatic system disorders: 6
  Adverse event: Blood creatinine increased: 1
  Adverse event: C-reactive protein increased: 0
  Adverse event: Cancer pain: 0
  Adverse event: Cardiac disorders: 0
  Adverse event: Cardiac failure: 0
  Adverse event: Chills: 1
  Adverse event: Confusional state: 1
  Adverse event: Constipation: 2
  Adverse event: Cough: 2
  Adverse event: Dehydration: 1
  Adverse event: Dermatitis acneiform: 0
  Adverse event: Diabetes mellitus non-insulin-dependent: 0
  Adverse event: Diarrhea: 1
  Adverse event: Dizziness: 2
  Adverse event: Dry skin: 0
  Adverse event: Dyspepsia: 0
  Adverse event: Dyspnoea: 1
  Adverse event: Ear and labyrinth disorders: 0
  Adverse event: Epistaxis: 0
  Adverse event: Eructation: 1
  Adverse event: Fatigue: 1
  Adverse event: Febrile neutropenia: 1
  Adverse event: Folliculitis: 0
  Adverse event: Gastrointestinal disorders: 7
  Adverse event: General disorders and administration site conditions: 3
  Adverse event: General physical health deterioration: 1
  Adverse event: Haematocrit decreased: 1
  Adverse event: Headache: 1
  Adverse event: Hemorrhoids: 0
  Adverse event: Hepatobiliary disorders: 1
  Adverse event: Hiccups: 1
  Adverse event: Hyperbilirubinaemia: 1
  Adverse event: Hypersensitivity: 0
  Adverse event: Hypertension: 2
  Adverse event: Hypoalbuminaemia: 1
  Adverse event: Hypocalcaemia: 0
  Adverse event: Hypokalaemia: 1
  Adverse event: Hypomagnesaemia: 1
  Adverse event: Hyponatraemia: 2
  Adverse event: Hypophosphataemia: 0
  Adverse event: Immune system disorders: 0
  Adverse event: Insomnia: 1
  Adverse event: Investigations: 2
  Adverse event: Leukocytosis: 0
  Adverse event: Leukopenia: 3
  Adverse event: Lung abscess: 0
  Adverse event: Lymphopenia: 0
  Adverse event: Metabolism and nutrition disorders: 2
  Adverse event: Mucosal inflammation: 0
